Assay in all cases: calcium imaging (FLIPR), activation of hTAS2R-transfected HEK293T-Gα16gust44 cells
Common to all, as to assay type: cell-based

One assay has as its target T1, hTAS2R8 (Homo sapiens, UniProt Q9NYW2).
T1 construct: expressed in transfected cells; host or cells: HEK293T cells stably expressing chimeric Gα16gust44, transient transfection
T1 sequence (Q9NYW2 1-309): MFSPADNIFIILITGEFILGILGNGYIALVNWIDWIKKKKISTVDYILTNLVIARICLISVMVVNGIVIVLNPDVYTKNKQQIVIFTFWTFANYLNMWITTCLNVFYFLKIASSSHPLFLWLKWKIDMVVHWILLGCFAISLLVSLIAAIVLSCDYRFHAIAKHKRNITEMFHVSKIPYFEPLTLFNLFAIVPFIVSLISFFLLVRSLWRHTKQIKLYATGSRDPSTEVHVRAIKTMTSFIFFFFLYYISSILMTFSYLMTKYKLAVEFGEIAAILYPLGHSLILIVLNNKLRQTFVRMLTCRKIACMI
Conditions: 100 μM test substance, bath application. An excerpt:
(§1) Human TAS2R cDNAs were cloned into pcDNA5/FRT (Invitrogen, San Diego, Calif.). For adequate plasma membrane targeting, receptor cDNA was fused to the aminoterminal sequence of the rat somatostatin type 3 receptor at the aminoterminus of the recombinant protein (Bufe, B., T. Hofmann, et al. (2002) Nat Genet. 32(3): 397-401). For immunological detection, the Herpes simplex Glycoprotein D epitope was supplemented at the carboxyterminus of the recombinant protein (Bufe et al., supra). Receptor constructs were transiently transfected into HEK293T cells stably expressing the chimeric G protein subunit Gα16gust44 (Ueda, T., S. Ugawa, et al. (2003) J Neurosci 23(19): 7376-80) using Lipofectamine 2000 (Invitrogen, San Diego, Calif.) in 96-well plates.
(§2) Calcium Imaging experiments were performed 24 h after transfection using a Fluorometric Imaging Plate Reader (FLIPR, Molecular Devices, Munich, Germany) as previously described (Bufe et al., supra). Taste active compounds were ordered from Sigma (Sigma-Aldrich, Taufkirchen, Germany). Absinthin, 3β hydroxy dihydro costunolide and 3β hydroxy pelenolide were kindly provided by Giovanni Appendino (Novara, Italy). Test substances were directly dissolved in C1 buffer (130 mM NaCl, 10 mM Na-Hepes, 10 mM Glucose, 5 mM KCl, 2 mM CaCl2, pH 7.4) or in DMSO, respectively. DMSO stocks were further diluted in C1 buffer not exceeding a final DMSO concentration of 1% on the cells. For the investigation of antagonistic effects, test substances were premixed. Agonists were applied at concentrations corresponding to EC90, except where indicated otherwise (Table 2). Data were collected from 3 independent experiments performed in quadruplicates and processed with SigmaPlot (SPSS, Chicago, Ill.). Fluorescence signals after application of test substances were corrected for and normalized to background fluorescence (ΔF/F═(F−F0)/F0), and baseline noise was subtracted. Calculation of dose-response curves was done by nonlinear regression using the function f(y)=((a−d)/(1+(x/EC50)^nH)+d).
(§3) In a first series of experiments we tested the two sesquiterpene lactones 3β hydroxy dihydro costunolide (formula (I) in FIG. 1) and 3β hydroxy pelenolide (formula (II) in FIG. 1) for their ability to activate hTAS2 receptor-expressing HEK293T cells.
(§4) Signal amplitudes were comparatively small (FIG. 2C).

For another assay, the target named is T2, hTAS2R1 (Homo sapiens, UniProt Q9NYW7).
T2 construct: expressed in transfected cells; host or cells: HEK293T cells stably expressing chimeric Gα16gust44, transient transfection
T2 sequence (Q9NYW7 1-299): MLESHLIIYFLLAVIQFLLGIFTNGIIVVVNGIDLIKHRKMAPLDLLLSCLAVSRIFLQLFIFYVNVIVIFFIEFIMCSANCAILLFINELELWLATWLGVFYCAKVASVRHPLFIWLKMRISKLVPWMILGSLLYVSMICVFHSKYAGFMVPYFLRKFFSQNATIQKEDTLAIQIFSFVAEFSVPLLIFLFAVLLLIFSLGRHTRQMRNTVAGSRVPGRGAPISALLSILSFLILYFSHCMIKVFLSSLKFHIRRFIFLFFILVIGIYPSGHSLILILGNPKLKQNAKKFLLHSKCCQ
Conditions: 100 μM test substance, bath application.
Excerpt: as §1, §2, §3, §4

Another assay concerns the target T3, hTAS2R7 (Homo sapiens, UniProt Q9NYW3).
T3 construct: expressed in transfected cells; host or cells: HEK293T cells stably expressing chimeric Gα16gust44, transient transfection
T3 sequence (Q9NYW3 1-318): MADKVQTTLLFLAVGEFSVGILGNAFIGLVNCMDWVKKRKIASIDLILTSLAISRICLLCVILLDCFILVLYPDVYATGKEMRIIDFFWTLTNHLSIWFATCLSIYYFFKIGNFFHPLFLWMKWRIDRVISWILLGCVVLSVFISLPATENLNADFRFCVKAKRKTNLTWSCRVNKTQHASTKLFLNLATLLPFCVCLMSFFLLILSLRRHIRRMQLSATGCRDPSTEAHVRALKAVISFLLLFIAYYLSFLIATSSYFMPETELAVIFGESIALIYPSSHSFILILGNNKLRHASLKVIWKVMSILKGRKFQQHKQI
The settings on record: 100 μM test substance, bath application.
Excerpt: as §1, §2, §3, §4

The target of the next assay is T4, hTAS2R44 (Homo sapiens, UniProt P59538, L162M).
T4 construct: expressed in transfected cells; host or cells: HEK293T cells stably expressing chimeric Gα16gust44, transient transfection
T4 sequence (P59538 1-309 L162M): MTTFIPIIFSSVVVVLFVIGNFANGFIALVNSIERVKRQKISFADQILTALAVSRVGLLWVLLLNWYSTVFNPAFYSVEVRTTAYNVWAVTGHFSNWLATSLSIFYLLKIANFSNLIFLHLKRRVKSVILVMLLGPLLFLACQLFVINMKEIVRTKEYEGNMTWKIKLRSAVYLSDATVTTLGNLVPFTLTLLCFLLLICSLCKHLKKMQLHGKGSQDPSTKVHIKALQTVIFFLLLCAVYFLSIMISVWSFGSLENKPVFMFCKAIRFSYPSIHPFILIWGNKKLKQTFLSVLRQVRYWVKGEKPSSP
Excerpt: as §1, §2, §3, §4

The term EC50 denotes the midpoint of the concentration-response curve.

On to `C/C1=C\C[C@H](O)/C(C)=C/[C@H]2OC(=O)[C@@H](C)C2CC1` (stereo partly drawn) [3β hydroxy dihydro costunolide], for which the “calcium response of hTAS2R8-transfected cells” value on hTAS2R8 was “responded”. In addition, the “calcium response of hTAS2R1-transfected cells” value on hTAS2R1 is reported as “responded”. Also, the “calcium response of hTAS2R7-transfected cells” value at hTAS2R7 is “responded”. Moreover, the “calcium response of hTAS2R44-transfected cells” value on hTAS2R44 (100 μM test substance, bath application) is reported as “responded”. In addition, the concentration for a half-maximal effect (EC50) at hTAS2R44 (concentration-response, intracellular calcium) was 31.5 ± 7.4 µM.

The values are drawn from patent publication US8673578B2, “Methods of identifying antagonists of the hTAS2R46 bitter taste receptor” (Deutsches Institut für Ernahrungsforschung Potsdam-Rehbrücke, priority 2009, dated 2014).
